# In the METLIN SMRT retention time set (Domingo-Almenara et al. 2019):
# Assay: gradient 5% acetonitrile 3 min, to 50% in 2 min, to 85% in 15 min, held 3 min, 100 µL/min
# Conditions: column: Zorbax Extend-C18 2.1 x 50 mm; eluents: water / acetonitrile, 0.1% formic acid
# In short: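 Standards, all pure, were combined into mixtures of ~100 molecules and run at 100 μL/min on a Zorbax Extend-C18 column (2.1 × 50 mm, 1.8 μm) with water and acetonitrile, each containing 0.1% formic acid. A coupled quadrupole time-of-flight mass spectrometer operated in positive and negative ionization mode. Retention time values come from computationally picked adduct peaks, each inspected manually.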
row,Compound,RP-LC retention time [s]
1,CC(C)CC(=O)Nc1nnc(SCc2nnc(-c3ccc4c(c3)OCO4)o2)s1,854
2,COCc1nc(-c2ccc(OC3CN(C(=O)NC(C)C)C3)cc2)no1,773
3,O=C(NCCN1CCCCCC1)c1cc2n(n1)CCCN(Cc1ccc(Cl)cc1)C2=O,670
4,C=CCN1C(=O)C(C)(C)COc2cc(NC(=O)c3cccc(OC)c3OC)ccc21,943
5,Cc1nc(C(=O)N2CCCn3ccnc3C2C(C)C)co1 (stereo unspecified),556
6,CCCN1CCn2cc(S(=O)(=O)Nc3cccc(C)c3C)cc2C1=O,758
7,Cc1ccc(Nc2nc(-c3cccnc3)nc3ccccc23)cc1,742
8,CCOC(=O)N1CCN(c2ncc(C(=O)NCc3ccccc3)c(N)n2)CC1,656
9,O=C(Cn1cnc2nc(N3CCCC(C(=O)NC4CC4)C3)sc2c1=O)NCc1cccs1 (stereo unspecified),644
10,Cc1ccccc1N1CCN(C(=O)c2ccc3c(c2)CC(=O)N3C)CC1,839
11,CCc1nnc(C2CCN(C(=O)c3cc(C)on3)CC2)s1,624
12,CS(=O)(=O)c1nc2ccc(NS(=O)(=O)c3ccc(Br)s3)cc2s1,888
13,C=CCN1N=C(C(=O)N2CCC(C)CC2)S(=O)(=O)c2ccc(Cl)cc21,997
14,Cn1nc(C(=O)N2CCCC2)c2c1CCN(C(=O)Nc1cc(F)ccc1F)C2,728
15,CCCOc1ccc(C(=O)N(Cc2ccc(Br)o2)C2CCS(=O)(=O)C2)cc1 (stereo unspecified),1010
16,COc1ccc(-c2nc(C)cc(C)c2CNS(=O)(=O)c2cccs2)cc1,642
17,CC(C)CC(=O)N1CCc2c(c(C(=O)NCc3ccc4c(c3)OCO4)nn2C)C1,745
18,COCCNC(=O)C1CCCN(C(=O)c2cccc(C(F)(F)F)c2)C1 (stereo unspecified),693
19,Cc1ccc(CS(=O)(=O)N2CCC(n3c(-c4ccco4)nc4cccnc43)C2)cc1C (stereo unspecified),995
20,Cc1cccc(NC(=O)Cn2c(=O)c3cc(C4CC4)nn3c3ncccc32)c1,789
21,CNC(=O)c1cc(-c2ccccc2)n[nH]1,643
22,CCN(CC)S(=O)(=O)c1ccc2c(c1)N(CC(=O)NC1CCCC1)C(=O)C1CCCCN21 (stereo unspecified),927
23,CCc1noc(NC(C)=O)c1-c1ccc(C)c(S(=O)(=O)N2CC=C(c3ccccc3)CC2)c1,1020

row,Compound,RP-LC retention time [s]
1,Cc1ccc(NC(=O)Cn2ncc3c(c2=O)N(C)C(=O)CS3)c(Br)c1,714
2,CCn1nccc1C(=O)NCc1cccnc1OC,662
3,O=C1CCCCC(Cc2ccccc2)(C(=O)Nc2cccnc2)N1 (stereo unspecified),623
4,O=S(=O)(c1ccc(Cl)c(-c2nnc(-c3ccccc3)o2)c1)N(CCO)CCO,739
5,CN1C(=O)COc2ccc(-c3csc(NC(=O)c4ccccc4)n3)cc21,926
6,CCn1ccc2sc(C)c(C(=O)NCc3ccccc3F)c2c1=O,818
7,COc1ccc(N2CCN(CC(O)c3cccc(OC)c3)CC2)cc1 (stereo unspecified),657
8,CCc1ccc(NC(=O)c2cn(CC)nc2S(=O)(=O)N2CCSCC2)cc1,1100
9,CN1CCC(NC(=O)C2CCc3sc(C(=O)N4CCCCCC4)cc3C2)CC1 (stereo unspecified),612
10,COCc1nc(C2CCN(S(=O)(=O)c3ccc4c(c3)CCC4)C2)no1 (stereo unspecified),928
11,CCCCN(C)S(=O)(=O)c1cc(-c2nnc(C)o2)co1,821
12,O=C(Cn1nc(N2CCOCC2)c2ccccc2c1=O)Nc1ccccc1F,790
13,O=C(C1=CN(c2ccc3c(c2)OCCO3)c2ccccc2S1(=O)=O)N1CCCCC1,830
14,COC(=O)c1ccc2c(C(C)=O)c[nH]c2c1,642
15,Cc1ccc(CNC(=O)[C@@]23CCCC[C@H]2N(C)C(=O)CC3)cc1,688
16,COc1ccc(NC(=O)C2CCCN(c3cnc4nccnc4c3)C2)c(C)c1 (stereo unspecified),693
17,CCN(CC)CCCNC(=O)C1CCCN(c2nc3ccccc3n(Cc3ccccc3)c2=O)C1 (stereo unspecified),726
18,COC1CC2C=C(C)/C=C/C=C/C(=O)NC(c3ccccc3)C/C=C/CCC(O)CC(=O)C2=C1O (stereo unspecified),977
19,COCCn1nc2n(c1=O)CCN(C(=O)c1cc(C3CC3)[nH]n1)CC2,596
20,COc1cc(NC(=O)Cn2nc3n(c2=O)CCCCC3)cc(OC)c1OC,659
21,Cc1ccnc(N2CCCC(C(=O)NCc3ccc(F)cc3)C2)n1 (stereo unspecified),709
22,O=C(c1ccc(Br)o1)N1CCC(c2cnn(-c3ccccc3)c2)CC1,957
23,CCCn1cc(C(=O)Nc2ccc(S(N)(=O)=O)cc2)c(=O)c2ccc(C)nc21,867

row,Compound,RP-LC retention time [s]
1,CCn1nccc1-c1cccc(-c2noc(-c3cccc(OC)c3OC)n2)c1,1170
2,CCOC(=O)c1noc2nc(C)nc(NCCCN(C)c3ccccc3)c12,897
3,CC1(C(=O)NCc2ccc(F)cc2)Cn2cnc(C(=O)NC3CCCCC3)c2C(=O)N1C1CC1 (stereo unspecified),765
4,Cc1ccc(NC(=O)N2CC(N(C)Cc3cccnc3)C2)cc1C,605
5,CCOc1ccc(NS(=O)(=O)c2cc(C(=O)Nc3ccc(C)c(C)c3)n[nH]2)cc1,902
6,CCn1cnc(S(=O)(=O)N2CCC(C(=O)Nc3ccc(C)cc3C)CC2)c1,741
7,CC(C)CCNC(=O)NCCc1cn(C)c2ncccc12,649
8,O=S(=O)(c1cccs1)N1CCN(c2ccc(Nc3cccnc3)nn2)CC1,548
9,Cc1cc(C(=O)Nc2nnc(SCC(=O)Nc3ccccc3C(F)(F)F)s2)no1,767
10,CS(=O)(=O)Nc1ccc(-c2noc(CN3C(=O)COc4ccccc43)n2)cc1,805
11,Fc1cnccc1CN1CC[C@@H]2CN(Cc3ccccc3)[C@@H]2C1,597
12,CCc1cc(C2CCCN2C(=O)Nc2ccc(C(=O)OC)cc2)on1 (stereo unspecified),801
13,COc1ccc(C2CCN(S(=O)(=O)c3cccc(C(F)(F)F)c3)C2)cc1 (stereo unspecified),1060
14,CCCn1cc(S(=O)(=O)CC(=O)Nc2ccc(C(=O)OCC)cc2)c2ccccc21,890
15,CCCn1c(=O)c(-c2ccc(C(=O)NCC(C)C)cc2)nc2cccnc21,967
16,Cc1c(S(=O)(=O)NC2CCCc3ccccc32)cc(C(=O)N2CCCCC2)n1C (stereo unspecified),907
17,COC(=O)C1=C(C)N(C(C)C)C(=O)C1(NC(=O)c1cccc(OC)c1)C(F)(F)F (stereo unspecified),917
18,Cc1cccc(C2CCCN2C(=O)c2cnn3cc(Br)cnc23)c1 (stereo unspecified),869
19,CCOC(=O)C1=C(CN2CCN(c3ccccn3)CC2)NC(=O)NC1c1ccc(OC)cc1 (stereo unspecified),612
20,CCOC(=O)CSc1nc2ccccc2n1C,670
21,CN1CCCCCCN(C(=O)c2cccs2)[C@H]2CCC[C@H]2C1=O,826
22,Cc1ccccc1NS(=O)(=O)c1cc2n(c1)CCN(CC(C)C)C2=O,795
23,Cc1nnc2c(=O)n(CC(=O)NCc3ccccc3Cl)c3cccnc3n12,693

row,Compound,RP-LC retention time [s]
1,Cc1cccc(-n2c(N)cc(=O)nc2SCC(=O)Nc2nc(-c3ccccc3)cs2)c1,738
2,CC(C)C(=O)Nc1nc(-c2ccc(F)cc2)cs1,916
3,CC1(c2noc(C3CCOCC3)n2)CCN(Cc2c(F)cccc2Cl)CC1,612
4,Cc1cc(C)cc(NC(=O)Cn2cnc3nc(N4CCC(C(=O)NC5CC5)CC4)sc3c2=O)c1,713
5,CN1CC(=O)N(CC(=O)NC2CCCCCCC2)c2ccccc2C1=O,717
6,O=C(Nc1ccccc1)N1CCC(OCc2ccccc2)C1 (stereo unspecified),837
7,CCn1cc(CCNC(=O)Nc2ccc(OC)cc2OC)c2cccnc21,649
8,Cn1c(=O)c(N2CCC(C(=O)NCCN3CCCCCC3)CC2)nc2cccnc21,611
9,CC(NC(=O)C(C)(C)C)C(=O)N1CCN(c2ccccn2)CC1 (stereo unspecified),574
10,O=C(c1ccc2c(c1)OCO2)N1CCC(F)(F)C(COCC2CC2)C1 (stereo unspecified),933
11,Cc1ccccc1S(=O)(=O)N1[C@H]2CC[C@@H]1c1cnc(-c3ccccc3)nc1C2,1140
12,O=C(Cn1cc(S(=O)(=O)N2CCCC2)ccc1=O)N1CCCc2ccccc21,782
13,COC(=O)c1cc(S(=O)(=O)N2CCN(c3ccccn3)CC2)c(C)n1C,630
14,CN(CC#N)C(=O)c1cc2c(Cl)ccc3c2n1CCO3,865
15,O=C(Nc1ccc(-n2cnc(C(=O)N3CCC4(CC3)OCCO4)c2)nc1)C1CC1,631
16,CCSc1nc2ccc(NS(=O)(=O)c3ccc(F)c(Cl)c3)cc2s1,1110
17,Cc1ccc(S(=O)(=O)Nc2ccc3c(c2)nc(-c2ccc(C(=O)NC(C)C)cc2)n3C)cc1,695
18,CCOc1ccc(S(=O)(=O)Nc2cc(-c3cn4ccc(C)cc4n3)ccc2C)cc1,718
19,COCC(C)(O)CNC(=O)C(=O)NCCc1ccccc1 (stereo unspecified),660
20,O=C(C1CCC1)N1CCC(n2cnnc2C2CC2)CC1,598
21,CCOc1cccc(-c2noc(Cn3c(=O)n(C(C)C)c(=O)c4ccccc43)n2)c1,1190
22,O=C(NCCc1ccccc1)Nc1cnn(-c2ncc(N3CCCCC3)cn2)c1,799
